Measurements reported in publication PMC10350922, “Allosteric Inhibitors of Macrophage Migration Inhibitory Factor (MIF) Interfere with Apoptosis-Inducing Factor (AIF) Co-Localization to Prevent Parthanatos” (Journal of Medicinal Chemistry, 2023).

How the values were obtained:
HeLa cells = assay: Cell death determination by flow cytometry (Hoechst 33342 / PI); type: cell-based; details: MNNG 50 μM 15 min, with or without 100 μM inhibitor pretreatment, 24 h
MIF [1] = target: T1, MIF (Homo sapiens, UniProt P14174); assay: Jump dilution assay (reversibility of binding); type: biochemical; details: 25 μM 6y, 10 min preincubation, 20-fold dilution, 20 min
T1 construct: made in house; host or cells: Escherichia coli BL21, pET-20b(p) plasmid
T1 sequence (P14174 2-115 limits assumed): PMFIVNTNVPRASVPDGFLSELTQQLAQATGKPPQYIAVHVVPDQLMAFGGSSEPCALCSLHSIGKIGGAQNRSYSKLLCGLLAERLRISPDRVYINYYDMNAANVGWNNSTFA
Procedure: To investigate the reversibility of binding, we performed the activity recovery experiment based on pre-incubation of MIF with the inhibitor at saturated concentration followed by jump dilution. The experiment aimed to study the reversibility of the MIF complex with 6y; thus, MIF was preincubated with 25 μM 6y for 10 min before 20-fold dilution and then tested for residual enzyme activity. After 20 min of residence time, MIF tautomerase activity recovered comparably to that expected for instantaneously reversible inhibitors (Figure 4b).
The solution of the enzyme (1.4 μM) was preincubated with a saturating concentration of inhibitor 6y (25 μM) for 10 min. Then, the enzyme–inhibitor mixture was diluted 20-fold with boric acid buffer, then 50 μL of the mixture was mixed with 50 μL of 2 mM PP solution in ammonium acetate buffer, and recovery of the activity was measured over 20 min. In the control groups, no enzyme/inhibitor was added.

[2] = Solubility observation in the MST experiment; type: physicochemical; details: at concentrations higher than 1000 μM, PBS-T with 5% DMSO
Procedure: (§1) A microscale thermophoresis (MST) assay was performed to confirm the binding of 6y to MIF. […] Overall, we concluded that 6y binds reversibly to an allosteric binding site that affects MIF tautomerase activity.

MIF [3] = target: T1, MIF; assay: MIF tautomerase activity assay (PP substrate, UV absorbance at 300 nm); type: biochemical
Procedure: Recombinant human MIF with a C-terminal His-tag was expressed and purified following methods published previously.[47] The inhibitory potency for MIF tautomerase activity of the 1-phenyl-1H-1,2,3-triazole-4-carboxamides was measured after pre-incubation with MIF. The MIF-catalyzed PP tautomerization was measured by the corresponding change in UV absorbance over the first 3 min of the reaction.[48] Initial screening of the inhibitory potency was performed at 10 μM inhibitor concentration.
Inhibition of the tautomerase activity and kinetics of MIF was measured using […] (PP) as a substrate. A stock solution was prepared by mixing PP in 50 mM ammonium acetate buffer and adjusted to pH 6.0 using 1.0 M NaOH to provide a concentration of 20 mM. This solution was incubated overnight at 37 °C to allow equilibration of the keto and enol forms and then stored at 4 °C. For the assay, MIF stock solution (10 μL, 70 μM) was diluted in 20 mL of the boric acid buffer (435 mM H3BO3, 1 mM EDTA, pH 6.2) to provide 35 nM solution. The enzyme activity was determined by premixing 192 μL of the MIF dilution with 8 μL of the inhibitors dissolved in DMSO (1 mM). This mixture was preincubated for 10 min. Next, 50 μL of the mixture was mixed with 50 μL of 2 mM PP solution in ammonium acetate buffer. Subsequently, MIF tautomerase activity was monitored by the formation of the borate–enol complex, which was measured by the increase in UV absorbance at 300 nm. The increase in UV absorbance was measured over the first 10 min of incubation using a BioTek Synergy H1 Hybrid plate reader. MIF tautomerase activity in the presence of blank DMSO was set to 100% enzyme activity. […] Data from the first 3 min were used to calculate the initial velocities. All of the graphs were prepared in GraphPad Prism.
For the IC50 measurements, 1 mM solutions of the compounds were double-diluted 10 times in DMSO and subsequently, the MIF tautomerase activity was determined by premixing 190 μL of the MIF dilution with 10 μL of the inhibitors. This mixture was preincubated for 10 min and mixed with the 2 mM PP solution as described above.

MIF [4] = target: T1, MIF; assay: Microscale thermophoresis (MST) binding assay; details: 25 °C, RED-tris-NTA labeled MIF
Procedure: as §1
MST experiments were performed on a Monolith NT.115 system (NanoTemper Technologies) using 100% LED and 60% IR-laser power. Laser on and off times were set at 30 and 5 s, respectively. A 100 nM dye solution RED-tris-NTA was prepared by mixing 2 μL of the dye (5 μM in DMSO) and 98 μL of PBS-T. The protein concentration was adjusted to 200 nM, and 100 μL of this solution was added to the tube with dye and incubated at rt for 30 min. Meanwhile, a twofold dilution series of compound 6y was prepared in PBS-T containing 5% DMSO. Subsequently, 10 μL of labeled MIF was mixed with 10 μL of the samples with 16 different concentrations of 6y ranging from 2000 to 0.06 μM. The samples were centrifuged for 10 min at rt and the supernatant was transferred into fresh tubes. After that, the standard treated capillaries (K002) were filled with the solutions and the MST curves were measured at 25 °C.

O=C(Nc1ccccc1)c1ccc(-n2cc(C(=O)NCc3cccs3)nn2)cc1 [Compound 6y, 1-(4-(Phenylcarbamoyl)phenyl)-N-(thiophen-2-ylmethyl)-1H-1,2,3-triazole-4-carboxamide]
Cells stained by PI (HeLa cells): 20% | Reversibility of binding to MIF (MIF [1]): reversible | Solubility [2]: limited solubility | remaining activity at 10 µM (MIF [3]; 10 μM inhibitor, activity without inhibitor set to 100%, mean, n = 3): 12% | IC50 (MIF [3]; PP as substrate, 10 min preincubation, read-out: IC50, inhibition of MIF tautomerase activity): 1700 ± 100 nM | Kd (MIF [4]): 95 µM
